Measured values as given in US9273043B2, “TRPV1 antagonists including dihydroxy substituent and uses thereof” (Purdue Pharma L.P., priority 2011, dated 2016).
Marks after values point to notes of the source that are not given here.

Test system: MIA-induced osteoarthritis pain
Test: MIA-induced osteoarthritis model, weight bearing difference (WBD) test
Assay type: in vivo
Conditions: rat MIA
Text: Osteoarthritis Pain: To assess the actions of a Compound of Formula (I) for the treatment or prevention of osteoarthritis pain, the rat monosodium iodo-acetate (MIA, i.e., sodium 2-iodoacetate) induced osteoarthritis model was used. Intra-articular injection of MIA causes joint degeneration characterized by osteolysis and swelling, with displacement of the patella, and reductions in bone mineral content and bone mineral density (Pomonis et al., “Development and pharmacological characterization of a rat model of osteoarthritis pain,” Pain 114: 339-346 (2005)). Under isoflurane anaesthesia, an intra-articular injection of 2 mg of MIA (Sigma-Aldrich) in 50 μl of saline was administered through the infrapatellar ligament of the knee joint of the right hind leg of the male, 6 week old Crl:CD(SD) rats. Control rats received an intra-articular injection of 50 μl of saline into the knee joint of the right hind leg. The left knee joint of all rats was untreated. […] Thus, in the assessment for osteoarthritis pain relief through gripping capability determinations, the 24 hour time point was the start of the next day when drug-in-vehicle was again orally administered (24 hours after the prior administration) for certain dosages. […] Weight Bearing Difference Test as an Assessment of Osteoarthritis Related Pain: The weight bearing difference test provides an accepted assessment of the efficacy of clinically useful analgesic drugs with respect of osteoarthritis related pain (see Pomonis et al. (2005)). WBD was assessed using a Linton Incapacitance Tester (Linton Instrumentation, Norfolk, UK). Rats were placed on the apparatus so that they were standing on their hind legs, and allowed to acclimate to the apparatus. When stationary, the weight born on each leg was measured over a 3s period. Three readings were taken for each rat at each time point; the average of the three readings was used for data analysis. WBD was expressed as “% WR”, i.e., the percentage of weight born on the MIA-injected right hind leg, using the following formula: [formula] where WR is the weight on the right hind leg and WL is the weight on the left (untreated) hind leg. […] The “% WRR”, i.e., the percentage reversal of the % WR impediment occurring post-MIA injection, was determined for each dosage at each time point using the following formula: [formula] where (% WR)Post-Drug is the % WR determined at each post-oral-administration time-point for each dose of each administered substance, (% WR)Pre-Drug is the % WR determined pre-oral-administration of each administered substance, and (% WR)Control Rat is the % WR determined for control rats (receiving the saline injection into the right hind leg knee joint). With the exception of the controls (i.e., celecoxib, vehicle) where the student's t-test was used, Dunnett's test was conducted for the % WRR.

Structure (SMILES): CC1CN(c2ncc(C(O)CO)cc2F)CCN1C(=O)Nc1nc2cc(F)ccc2s1.O=C(O)C=CC(=O)O (stereo not shown)
- minimal effective dose: 1 mg/kg
- % WRR [mean] (oral 0.3 mg/kg, 1 h after administration): 4.3%
- % WRR [mean] (oral 0.3 mg/kg, 3 h after administration): 12.5%
- % WRR [mean] (oral 0.3 mg/kg, 5 h after administration): 7.1%
- % WRR [mean] (oral 0.3 mg/kg, 7 h after administration): 5.0%
- % WRR [mean] (oral 0.3 mg/kg, 24 h after administration): 0%
- % WRR [mean] (oral 1 mg/kg, 1 h after administration): 15.2%
- % WRR [mean] (oral 1 mg/kg, 3 h after administration): 28.8** %
- % WRR [mean] (oral 1 mg/kg, 3 h after administration, listed as product prepared with Compound A155(a) and fumaric acid): 28.8%
- % WRR [mean] (oral 1 mg/kg, 5 h after administration): 16.1** %
- % WRR [mean] (oral 1 mg/kg, 5 h after administration, listed as product prepared with Compound A155(a) and fumaric acid): 16.1%
- % WRR [mean] (oral 1 mg/kg, 7 h after administration): 8.8* %
- % WRR [mean] (oral 1 mg/kg, 7 h after administration, listed as product prepared with Compound A155(a) and fumaric acid): 8.8%
- % WRR [mean] (oral 1 mg/kg, 24 h after administration): 2.1%
- % WRR [mean] (oral 3 mg/kg, 1 h after administration): 20.9** %
- % WRR [mean] (oral 3 mg/kg, 3 h after administration): 34.5** %
- % WRR [mean] (oral 3 mg/kg, 5 h after administration): 23.4** %
- % WRR [mean] (oral 3 mg/kg, 7 h after administration): 9.5* %
- % WRR [mean] (oral 3 mg/kg, 24 h after administration): 3.7%
- % WRR [mean] (oral 10 mg/kg, 1 h after administration): 33.3** %
- % WRR [mean] (oral 10 mg/kg, 3 h after administration): 44.1** %
- % WRR [mean] (oral 10 mg/kg, 5 h after administration): 35.0** %
- % WRR [mean] (oral 10 mg/kg, 7 h after administration): 22.8** %
- % WRR [mean] (oral 10 mg/kg, 24 h after administration): 9.8%
- % WRR [mean] (oral 20 mg/kg, 1 h after administration): 41.9** %
- % WRR [mean] (oral 20 mg/kg, 1 h after administration, listed as product prepared with Compound A155(a) and fumaric acid): 41.9%
- % WRR [mean] (oral 20 mg/kg, 3 h after administration): 56.9** %
- % WRR [mean] (oral 20 mg/kg, 3 h after administration, listed as product prepared with Compound A155(a) and fumaric acid): 56.9%
- % WRR [mean] (oral 20 mg/kg, 5 h after administration): 46.9** %
- % WRR [mean] (oral 20 mg/kg, 5 h after administration, listed as product prepared with Compound A155(a) and fumaric acid): 46.9%
- % WRR [mean] (oral 20 mg/kg, 7 h after administration): 35.6** %
- % WRR [mean] (oral 20 mg/kg, 7 h after administration, listed as product prepared with Compound A155(a) and fumaric acid): 35.6%
- % WRR [mean] (oral 20 mg/kg, 24 h after administration): 19.8** %
- % WRR [mean] (oral 20 mg/kg, 24 h after administration, listed as product prepared with Compound A155(a) and fumaric acid): 19.8%
